Test in all cases: DTP human tumour cell line panel, 48 h
The subject of experiment [1] is BT-549 breast.
Experiment [2] deals with EKVX NSCLC.
In experiment [3] the test system is MALME-3M melanoma.
Experiment [4] has as its system NCI-H226 lung.
The test system of experiment [5] is OVCAR-8 ovarian.
For experiment [6], the system named is SF-539 CNS.
The subject of experiment [7] is SW-620 colon.
For experiment [8], the system named is TK-10 renal.
The subject of experiment [9] is U251 CNS.
Experiment [10] deals with UO-31 renal.

SMILES strings stand for the structures.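 Cells were grown in 96-well plates and exposed to each compound for 48 hours at five concentrations; endpoints were interpolated linearly between bracketing concentrations, or set to the highest concentration if not reached. Abbreviation: GI50, concentration required for 50% inhibition of growth. TGI is the concentration that stops growth completely.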

With `NS(=O)(=O)NCCNc1nonc1C(=Nc1ccc(F)c(Br)c1)NO`, the GI50 – broadly, the concentration that inhibits growth by half – in experiment [1] is 40.9 µM; in experiment [2], 34.8 µM; in experiment [3], 28.5 µM; in experiment [4], 47.7 µM; in experiment [5] it was 56.5 µM; in [6] it was 37.5 µM. Moreover, the GI50 in experiment [7] was 51.1 µM; in [8] it was 29.8 µM; in [9] it was 53.1 µM; in experiment [10], 24.8 µM. In addition, the TGI in experiment [1], in experiment [2], in experiment [3], in experiment [4], in [5] and in [6] was > 100 µM each time. Further, the TGI in experiment [7], in [8], in [9] and in [10] was > 100 µM in each case.
As to `CC1=C(C(=O)Nc2cc(Cl)c3[nH]ncc3c2)C(c2ccc(C(F)(F)F)cc2)CC(=O)N1` (stereo not given), the GI50 in experiment [1] was 5.07 µM; in experiment [2], > 25 µM; in [3], 13.1 µM; in experiment [4], 2.11 µM; in [5] it was > 25 µM; in experiment [6] it was 14.8 µM. For the same molecule, the GI50 in experiment [7] was > 25 µM; in [8], > 17.6 µM; in [9], > 25 µM; in experiment [10] it was 2 µM. Besides, the TGI in experiment [1], in experiment [2], in experiment [3], in experiment [4], in experiment [5] and in [6] was > 25 µM each time. Further, the concentration for total growth inhibition (TGI) in experiment [7], in experiment [8], in experiment [9] and in [10] was > 25 µM each time.
As to `CC(=O)c1c(CO[N+](=O)[O-])n([O-])c2ccccc2[n+]1=O`, the total growth inhibition concentration (TGI) in experiment [1], in [2], in [3], in [4], in [5] and in [6] was > 100 µM each time. The TGI in [7], in [8], in [9] and in experiment [10] was > 100 µM in each case.
For `Cc1ccc(NC(=O)CSc2nnc3n(Cc4ccccc4)c(=O)c4c(C)c(C(N)=O)sc4n23)cc1`, the GI50 in experiment [1] is 12.7 µM; in [2], 95 µM; in experiment [3], > 100 µM; in experiment [4], 27.2 µM; in experiment [5], > 100 µM; in experiment [6] it was 21.7 µM. In addition, the GI50 was > 100 µM in [7], 13.7 µM in experiment [8], 5.17 µM in experiment [9] and > 100 µM in experiment [10]. For the same molecule, the concentration for total growth inhibition (TGI) (usually the concentration giving total growth inhibition) in experiment [1] was 72 µM; in experiment [2], > 100 µM; in experiment [3], > 100 µM; in experiment [4], > 100 µM; in [5], > 100 µM; in experiment [6], > 100 µM. Also, the TGI was > 100 µM in experiment [7], 34 µM in [8], 52.9 µM in [9] and > 100 µM in [10].
Turning to `CCOC(=O)c1cc(-c2ccccc2)[nH]c1N/N=C/c1ccc(Cl)cc1`, the GI50 is 46.8 µM in experiment [1]; 36 µM in [2]; > 100 µM in experiment [3]; > 100 µM in experiment [4]; > 100 µM in experiment [5]; > 100 µM in [6]. Moreover, the GI50 is > 100 µM in experiment [7], > 100 µM in experiment [8], > 100 µM in [9] and 73.6 µM in [10]. In addition, the concentration for total growth inhibition (TGI) in experiment [1], in [2], in [3], in experiment [4], in [5] and in experiment [6] was > 100 µM throughout. Further, the TGI in experiment [7], in experiment [8], in [9] and in [10] was > 100 µM in each case.
Regarding `O=[N+]([O-])c1cc(C(F)(F)F)ccc1Sc1ccc(C(F)(F)F)cc1[N+](=O)[O-]`, the GI50 was 7.52 µM in [1]; 41.7 µM in experiment [2]; 17.5 µM in [3]; > 100 µM in experiment [4]; 6.1 µM in [5]; 9.15 µM in experiment [6]. The GI50 was 3.31 µM in experiment [7], 28.3 µM in experiment [8], 12.9 µM in [9] and 34.8 µM in experiment [10]. Moreover, the TGI in [1], in [2], in experiment [3], in [4], in experiment [5] and in [6] was > 100 µM throughout. In addition, the TGI in experiment [7], in experiment [8], in experiment [9] and in experiment [10] was > 100 µM throughout.
Take `CN(CC(=O)Nc1nc2ccccc2[nH]1)S(=O)(=O)c1ccc(Cl)cc1`: the GI50 is > 100 µM in experiment [1]; 52.3 µM in experiment [2]; > 100 µM in experiment [3]; > 100 µM in experiment [4]; 95.2 µM in experiment [5]; > 100 µM in experiment [6]. Besides, the GI50 in experiment [7], in [8], in [9] and in experiment [10] was > 100 µM in each case. Moreover, the TGI in experiment [1], in experiment [2], in [3], in experiment [4], in experiment [5] and in [6] was > 100 µM each time. Besides, the TGI in experiment [7], in [8], in experiment [9] and in [10] was > 100 µM each time.
